Active and inactive are the calls of the source.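 The calls were made as follows: active = blocks KCNQ2 potassium channel current at some tested dose, with a fitted dose response curve; inactive = the rest.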
Target: Potassium voltage-gated channel subfamily KQT member 2 (Rattus norvegicus) (UniProt O88943)
Experiment: blockers of rat KCNQ2 potassium current – automated electrophysiology, CHO cells, CRC2, orthogonal assay for KCNQ2 inhibitor project, SAR follow-up (AID 588426)
Conditions: KCNQ2-CHO automated patch clamp current; for current change, negative = inhibition: at 30 µM (top of the series)

Potassium voltage-gated channel subfamily KQT member 2 (Rattus norvegicus), sequence (O88943 whole entry, looked up): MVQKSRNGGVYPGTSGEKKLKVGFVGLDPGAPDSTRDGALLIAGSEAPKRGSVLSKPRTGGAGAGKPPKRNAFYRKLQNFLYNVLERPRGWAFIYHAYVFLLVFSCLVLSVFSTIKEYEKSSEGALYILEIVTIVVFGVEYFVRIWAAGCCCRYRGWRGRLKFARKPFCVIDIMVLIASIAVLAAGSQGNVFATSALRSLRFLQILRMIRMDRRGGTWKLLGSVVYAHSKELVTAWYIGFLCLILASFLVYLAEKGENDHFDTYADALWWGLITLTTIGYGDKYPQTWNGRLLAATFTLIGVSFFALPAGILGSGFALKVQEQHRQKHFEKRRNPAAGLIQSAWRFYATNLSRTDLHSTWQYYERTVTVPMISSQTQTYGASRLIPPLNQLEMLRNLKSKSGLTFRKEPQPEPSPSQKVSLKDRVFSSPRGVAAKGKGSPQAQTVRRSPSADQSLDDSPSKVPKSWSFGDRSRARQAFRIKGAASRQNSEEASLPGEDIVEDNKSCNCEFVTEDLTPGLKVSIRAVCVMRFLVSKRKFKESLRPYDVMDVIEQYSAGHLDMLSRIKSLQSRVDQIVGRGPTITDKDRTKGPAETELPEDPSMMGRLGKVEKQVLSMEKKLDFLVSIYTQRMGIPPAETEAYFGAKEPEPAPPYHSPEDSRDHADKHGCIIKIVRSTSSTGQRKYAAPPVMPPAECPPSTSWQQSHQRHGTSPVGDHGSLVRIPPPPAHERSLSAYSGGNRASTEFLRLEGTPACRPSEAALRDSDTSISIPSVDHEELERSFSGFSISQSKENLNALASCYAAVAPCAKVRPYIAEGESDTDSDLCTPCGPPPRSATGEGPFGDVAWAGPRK

SMILES	IC50 [µM]	current change, negative = inhibition
COc1cccc(CC(=O)Nc2ccccc2N2CCCC2)c1	2.35	–
CCC(C(=O)Nc1ccccc1-n1ccnc1)c1ccccc1 (configuration not stated)	–	inactive
O=C(Cc1ccc(Cl)c(Cl)c1)Nc1ccccc1N1CCCC1	1.07	–
CCC(C(=O)Nc1ccccc1N1CCCC1)c1ccc(Cl)cc1 (configuration not stated)	0.28	–
CCC(C(=O)Nc1ccccc1N1CCCCCCC1)c1ccccc1 (configuration not stated)	–	inactive
CCC(C(=O)Nc1ccccc1N1CCCC1)c1ccc(F)c(F)c1 (configuration not stated)	0.17	–
CCC(C(=O)Nc1ccccc1N(C)CC)c1ccccc1 (configuration not stated)	–	inactive
O=C(Cc1cccc(C(F)(F)F)c1)Nc1ccccc1N1CCCC1	0.35	–
CCC(C(=O)Nc1ccccc1N1CCCC1)c1ccc(F)cc1 (configuration not stated)	0.13	–
CCC(C(=O)Nc1ccccc1Cl)c1ccccc1 (configuration not stated)	15	–
CC[C@H](C(=O)Nc1ccccc1N1CCCC1)c1ccccc1	0.08	–
O=C(Nc1ccccc1N1CCCC1)C1(c2ccccc2)CC1	–	inactive
CCC(C(=O)Nc1ccccc1-n1c(C)ccc1C)c1ccccc1 (configuration not stated)	–	inactive
CCC(C(=O)Nc1ccc(N2CCCC2)cc1)c1ccccc1 (configuration not stated)	0.21	–
CCC(C(=O)Nc1ccccc1N1C(=O)CCC1=O)c1ccccc1 (configuration not stated)	–	inactive
O=C(Nc1ccccc1N1CCCC1)[C@H]1CCc2ccccc21	14.1	–
C[C@@H](C(=O)Nc1ccccc1N1CCCC1)c1ccccc1	5.13	–
CC[C@H](C(=O)Nc1ccc(N2CCCC2)cc1)c1ccccc1	0.11	–
CCC(C(=O)Nc1ccccc1N1CCCC1)c1ccc(OC)cc1 (configuration not stated)	0.38	–
CCC(C(=O)Nc1ccccc1N(C)C)c1ccccc1 (configuration not stated)	17.4	–
CC(C(=O)Nc1ccccc1N1CCCC1)c1ccccc1 (configuration not stated)	0.26	–

SMILES	IC50 [µM]	current change, negative = inhibition
O=C(Nc1ccccc1N1CCCC1)C(F)c1ccccc1 (configuration not stated)	0.99	–
O=C(Nc1ccccc1N1CCCC1)C(c1ccccc1)C1CC1 (configuration not stated)	3.5	–
O=C(Cc1ccccc1)Nc1ccccc1N1CCCC1	0.74	–
O=C(Cc1c(F)cccc1F)Nc1ccccc1N1CCCC1	0.56	–
COc1ccc(CC(=O)Nc2ccccc2N2CCCC2)cc1	1.75	–
O=C(Cc1ccccc1Cl)Nc1ccccc1N1CCCC1	0.95	–
CCC(C(=O)Nc1ccccc1OC)c1ccccc1 (configuration not stated)	–	inactive
CC[C@@H](C(=O)Nc1ccc(N2CCCC2)cc1)c1ccccc1	0.36	–
O=C(Nc1ccccc1N1CCCC1)C1CCOc2ccccc21 (configuration not stated)	–	inactive
CCC(C(=O)Nc1ccccc1N1CCCC1)c1ccc(OC)c(OC)c1 (configuration not stated)	20.2	–
CCC(C(=O)Nc1cccc(N2CCCC2)c1)c1ccccc1 (configuration not stated)	–	inactive
O=C(Cc1cccc(F)c1)Nc1ccccc1N1CCCC1	0.49	–
O=C(Nc1ccccc1N1CCCC1)[C@H]1CCCc2ccccc21	24.6	–
Cc1cccc(CC(=O)Nc2ccccc2N2CCCC2)c1	1.32	–
CCC(C(=O)Nc1ccccc1N1CCCC1)c1cccc(Cl)c1 (configuration not stated)	0.24	–
CCCC(C(=O)Nc1ccccc1N1CCCC1)c1ccccc1 (configuration not stated)	0.32	–
O=C(Cc1ccc(Cl)cc1)Nc1ccccc1N1CCCC1	0.8	–
CC(C)CC(C(=O)Nc1ccccc1N1CCCC1)c1ccccc1 (configuration not stated)	2.22	–
CCC(C(=O)Nc1ccccc1N1CCCC1)c1ccccc1 (configuration not stated)	0.16	–
CCC(C(=O)Nc1ccccc1N1CCCC1)c1cccc(C(F)(F)F)c1 (configuration not stated)	0.39	–
O=C(Cc1ccc(F)c(F)c1)Nc1ccccc1N1CCCC1	1.73	–

SMILES	IC50 [µM]	current change, negative = inhibition
O=C(Cc1cccc(Cl)c1)Nc1ccccc1N1CCCC1	0.17	–
CCC(C(=O)Nc1ccccc1N1CCCC1)c1cccc(OC)c1 (configuration not stated)	0.12	–
O=C(Nc1ccccc1N1CCCC1)C1CCc2ccccc21 (configuration not stated)	0.33	–
CCC(C(=O)Nc1ccccc1N1CCOCC1)c1ccccc1 (configuration not stated)	12.7	–
CCC(C(=O)Nc1ccccc1N1CCCC1)c1ccc(Cl)c(Cl)c1 (configuration not stated)	0.47	–
CCC(C(=O)Nc1ccccc1N1CCCC1)c1cccc(F)c1 (configuration not stated)	0.36	–
O=C(Nc1ccccc1N1CCCC1)[C@@H]1CCc2ccccc21	2.29	–
CC[C@@H](C(=O)Nc1ccccc1N1CCCC1)c1ccccc1	0.94	–
CCC(C(=O)Nc1ccccc1N1CCCC1)c1cccc(C)c1 (configuration not stated)	0.33	–
CCC(C(=O)Nc1ccccc1-n1cccc1)c1ccccc1 (configuration not stated)	5.27	–
O=C(Cc1ccc(F)cc1)Nc1ccccc1N1CCCC1	0.7	–
CCC(C(=O)Nc1ccccc1N1CCCC1)c1ccccc1F (configuration not stated)	0.44	–
CC(C)C(C(=O)Nc1ccccc1N1CCCC1)c1ccccc1 (configuration not stated)	–	inactive
CCC(C(=O)Nc1ccccc1N1CCCCC1)c1ccccc1 (configuration not stated)	–	inactive
C[C@H](C(=O)Nc1ccccc1N1CCCC1)c1ccccc1	0.59	–
CCC(C(=O)Nc1ccccc1N(C)Cc1ccccc1)c1ccccc1 (configuration not stated)	–	inactive
CCC(C(=O)Nc1ccccc1N1CCCC1)c1ccccc1Cl (configuration not stated)	3.31	–
O=C(Cc1ccccc1F)Nc1ccccc1N1CCCC1	–	inactive
O=C(Nc1ccccc1N1CCCC1)[C@@H]1CCCc2ccccc21	29.9	–
CC(C)(C(=O)Nc1ccccc1N1CCCC1)c1ccccc1	–	inactive

Source: PubChem BioAssay AID588426 (Johns Hopkins Ion Channel Center, 2011)
